# System: CNFN (cornifelin)
# Experiment: RT-qPCR analysis of gene expression, CNFN transcript
# Type: cell-based
# Conditions: normal human epidermal keratinocytes, 24 h, 0.004 mg/mL, normalised to GAPDH
# Method: (§1) Normal, human epidermal keratinocytes were used to conduct the study. Normal, human epidermal keratinocytes were seeded in 48-well culture plates and cultured in culture medium for 3 days at 37° C. under 5% CO2 with renewal of the culture medium after the first 24 hours of culture. After incubation, the culture medium was replaced by test medium (supplemented with 1.5 mM CaCl2) containing or not containing (control) the compounds to be tested, and the cells were incubated for 24 hours. All conditions were performed with n=2. After treatment, the culture media were removed and the cells rinsed twice with PBS (w/o CaCl2, w/o MgCl2). Total RNAs were isolated using a magnetic bead extraction kit, following the manufacturer's instructions (MagMAX™-96 Total RNA Isolation Kit, Ambion). Quantification of RNAs and quality control thereof were analysed using Labchip GX (Perkin Elmer). Expression of the selected transcripts was analysed by two-step quantitative PCR. First, the cDNAs were retro-transcribed from the RNAs using the Quantitect® Reverse transcription kit (QIAGEN) following the manufacturer's instructions. The quantitative PCR experiments were performed using a LightCycler® 480 Real-Time PCR System in 384-well plate (Roche) following the incorporation technique of SYBR®Green (Roche) (Table 4). The results are expressed as fold change (Fc) as compared with the non-treated control, after normalising relative expressions in relation to expression of a housekeeping gene (GAPDH). The expression of a gene is considered to be stimulated when it is multiplied at least by 1.5.
row,Compound,CNFN Fold change vs Control (Fc) [fold change]
1,"O=c1oc2c(O)c(O)cc3c(=O)oc4c(O)c(O)cc1c4c23 [Ellagic acid, ellagic acid]",0.64
2,oenothein B,0.76

# Same assay, conditions: normal human epidermal keratinocytes, 24 h, 0.1 mg/mL, normalised to GAPDH
row,Compound,CNFN Fold change vs Control (Fc) [fold change]
1,"O=c1c(O[C@@H]2O[C@H](CO)[C@H](O)[C@H](O)[C@H]2O)c(-c2ccc(O)c(O)c2)oc2cc(O)cc(O)c12 [Hyperoside, hyperoside]",0.61
2,"O=c1c(O[C@@H]2O[C@H](CO)[C@@H](O)[C@H](O)[C@H]2O)c(-c2ccc(O)c(O)c2)oc2cc(O)cc(O)c12 [Isoquercitrin, isoquercitrin]",0.54
3,"O=C(O)[C@H]1O[C@@H](Oc2cc(O)c3c(=O)cc(-c4ccc(O)c(O)c4)oc3c2)[C@H](O)[C@@H](O)[C@@H]1O [Luteoline-7-O-glucuronide, luteoline-7-O-glucuronide]",0.42
4,"O=c1c(O)c(-c2ccc(O)c(O)c2)oc2cc(O)cc(O)c12 [Quercetin, quercetin]",0.13

# System: FLG2 (filaggrin 2)
# Experiment: RT-qPCR analysis of gene expression, FLG2 transcript
# Type: cell-based
# Conditions: normal human epidermal keratinocytes, 24 h, 0.004 mg/mL, normalised to GAPDH
# Method: as §1
row,Compound,FLG2 Fold change vs Control (Fc) [fold change]
1,"O=c1oc2c(O)c(O)cc3c(=O)oc4c(O)c(O)cc1c4c23 [Ellagic acid, ellagic acid]",1.22
2,oenothein B,1.36

# Same assay, conditions: normal human epidermal keratinocytes, 24 h, 0.1 mg/mL, normalised to GAPDH
row,Compound,FLG2 Fold change vs Control (Fc) [fold change]
1,"O=c1c(O[C@@H]2O[C@H](CO)[C@H](O)[C@H](O)[C@H]2O)c(-c2ccc(O)c(O)c2)oc2cc(O)cc(O)c12 [Hyperoside, hyperoside]",0.5
2,"O=c1c(O[C@@H]2O[C@H](CO)[C@@H](O)[C@H](O)[C@H]2O)c(-c2ccc(O)c(O)c2)oc2cc(O)cc(O)c12 [Isoquercitrin, isoquercitrin]",0.9
3,"O=C(O)[C@H]1O[C@@H](Oc2cc(O)c3c(=O)cc(-c4ccc(O)c(O)c4)oc3c2)[C@H](O)[C@@H](O)[C@@H]1O [Luteoline-7-O-glucuronide, luteoline-7-O-glucuronide]",0.4
4,"O=c1c(O)c(-c2ccc(O)c(O)c2)oc2cc(O)cc(O)c12 [Quercetin, quercetin]",0.12

# System: LCE3D (late cornified envelope 3D)
# Experiment: RT-qPCR analysis of gene expression, LCE3D transcript
# Type: cell-based
# Conditions: normal human epidermal keratinocytes, 24 h, 0.004 mg/mL, normalised to GAPDH
# Method: as §1
row,Compound,LCE3D Fold change vs Control (Fc) [fold change]
1,"O=c1oc2c(O)c(O)cc3c(=O)oc4c(O)c(O)cc1c4c23 [Ellagic acid, ellagic acid]",0.51
2,oenothein B,0.87

# Same assay, conditions: normal human epidermal keratinocytes, 24 h, 0.1 mg/mL, normalised to GAPDH
row,Compound,LCE3D Fold change vs Control (Fc) [fold change]
1,"O=c1c(O[C@@H]2O[C@H](CO)[C@H](O)[C@H](O)[C@H]2O)c(-c2ccc(O)c(O)c2)oc2cc(O)cc(O)c12 [Hyperoside, hyperoside]",0.61
2,"O=c1c(O[C@@H]2O[C@H](CO)[C@@H](O)[C@H](O)[C@H]2O)c(-c2ccc(O)c(O)c2)oc2cc(O)cc(O)c12 [Isoquercitrin, isoquercitrin]",0.47
3,"O=C(O)[C@H]1O[C@@H](Oc2cc(O)c3c(=O)cc(-c4ccc(O)c(O)c4)oc3c2)[C@H](O)[C@@H](O)[C@@H]1O [Luteoline-7-O-glucuronide, luteoline-7-O-glucuronide]",0.44
4,"O=c1c(O)c(-c2ccc(O)c(O)c2)oc2cc(O)cc(O)c12 [Quercetin, quercetin]",0.2

# System: SPRR1A (small proline-rich protein 1A)
# Experiment: RT-qPCR analysis of gene expression, SPRR1A transcript
# Type: cell-based
# Conditions: normal human epidermal keratinocytes, 24 h, 0.004 mg/mL, normalised to GAPDH
# Method: as §1
row,Compound,SPRR1A Fold change vs Control (Fc) [fold change]
1,"O=c1oc2c(O)c(O)cc3c(=O)oc4c(O)c(O)cc1c4c23 [Ellagic acid, ellagic acid]",0.96
2,oenothein B,1.07

# Same assay, conditions: normal human epidermal keratinocytes, 24 h, 0.1 mg/mL, normalised to GAPDH
row,Compound,SPRR1A Fold change vs Control (Fc) [fold change]
1,"O=c1c(O[C@@H]2O[C@H](CO)[C@H](O)[C@H](O)[C@H]2O)c(-c2ccc(O)c(O)c2)oc2cc(O)cc(O)c12 [Hyperoside, hyperoside]",0.64
2,"O=c1c(O[C@@H]2O[C@H](CO)[C@@H](O)[C@H](O)[C@H]2O)c(-c2ccc(O)c(O)c2)oc2cc(O)cc(O)c12 [Isoquercitrin, isoquercitrin]",0.57
3,"O=C(O)[C@H]1O[C@@H](Oc2cc(O)c3c(=O)cc(-c4ccc(O)c(O)c4)oc3c2)[C@H](O)[C@@H](O)[C@@H]1O [Luteoline-7-O-glucuronide, luteoline-7-O-glucuronide]",0.41
4,"O=c1c(O)c(-c2ccc(O)c(O)c2)oc2cc(O)cc(O)c12 [Quercetin, quercetin]",0.13

# Source: patent US20220257500A1, “USE OF A HYDRO-ALCOHOLIC EXTRACT OF EVENING PRIMROSE FOR HYDRATING SKIN AND INCREASING BARRIER FUNCTION” (L'OREAL, priority 2019, published 2022)
